Results as given in US20040043083A1, “Anticancer composition comprising sesquiterpenes isolated from resina ferulae” (priority 2000, published 2004).
Converted amounts (≈) assume the structure as drawn.

Columns and labels:
Type in all cases: cell-based
[1] = test system: A549 (human lung cancer cell line); test: Inhibition of human cancer cell line proliferation (SRB method), A549; conditions: A549 cells, 48 hours
Experimental: (§1) A549 (human lung cancer cell line), SK-OV-3 (human ovary cancer cell line), SK-MEL-2 ([…] melanoma cancer cell line), XF498 (Human CNS cancer cell line) and HCT-15 (human colic cancer cell line) were obtained from NCI of U.S. A. and subjected to subculture. The inhibition of the cancer cell line proliferation was determined by the SRB (sulforhodamine B) method in accordance with the procedure described by Skehan, P. et al. (J. Nat'l. Canc. Inst., 82, p1107, 1990) as follows.
(§2) 1) Each of the subcultured cancer cell lines was collected from the surface of the culture vessel, treated with a trypsin-CDTA solution, diluted, and added to each wall of a 96-well plat bottom microplate (Falcon Co.) in an amount of 5×10^3 (A549, HCT-15), 1×10^4 (SK-MEL-2, XF498) or 2×10^4 (SK-OV-3) cells/well, followed by incubation in a CO2 incubator to anchor the cells to the bottom surface. Then the culture medium was removed from the plate with suction, a solution containing a predetermined amount of a test sample (test solution) dissolved in culture medium was added to each well; and the mixture was futher cultured for 48 hours.
(§3) 2) Thereafter, the culture medium was removed from the plate with suction, and […] of 10% TCA (trichloro acetic acid) was added to each well. The plate was allowed to stand at room temperature for one hour to fix the cells, and was washed several times with distilled water to completely remove excess TCA and then dried.
(§4) 3) Each well was treated with 100 μl of an SRB staining solution (0.4% suforhodamine in 1% acetic acid) for 30 minutes, washed several times with 1% acetic acid to remove the remaining staining solution, and dried at room temperature.
(§5) 4) After adding 100 μl of 10 mM Trisma base solution (unbuffered) to each well, the plate was shaken with a titer plate shaker for 10 minutes to elute the staining solution from the cells, and the absorbance thereof at 520 nm was determined with a microplate reader.
(§6) 5) The degree of cancer cell proliferation (% cell growth, i.e., reverse of anticancer activity) of the cell line treated with the test solution was calculated by the following numerical formula wherein C is the number of cells in a control group treated with a culture medium instead of the test solution; Tz, the number of cells at time zero; and T, the number of cells treated with the test solution calculated based on measurement. Numerical formula 1 was used when Tz>T, numerical formula 2, when Tz<T.
(§7) Numerical formula 1=[(T−Tz)/(C−Tz)]×100
(§8) Numerical formula 2=[(T−Tz)/Tz]×100
(§9) 6) The amount of the samples needed for achieving 50% inhibition of the inhibiting cancer cell proliferation (ED50) was calculated from the observed degree of cell proliferation at various concentrations of the sample using the data regression of LOTUS program.

[2] = test system: SK-OV-3 (human ovary cancer cell line); test: Inhibition of human cancer cell line proliferation (SRB method), SK-OV-3; conditions: SK-OV-3 cells, 48 hours
Experimental: as §1, §2, §3, §4, §5, §6, §7, §8, §9

[3] = test system: SK-MEL-2 (human melanoma cancer cell line); test: Inhibition of human cancer cell line proliferation (SRB method), SK-MEL-2; conditions: SK-MEL-2 cells, 48 hours
Experimental: as §1, §2, §3, §4, §5, §6, §7, §8, §9

[4] = test system: XF498 (human CNS cancer cell line); test: Inhibition of human cancer cell line proliferation (SRB method), XF498; conditions: XF498 cells, 48 hours
Experimental: as §1, §2, §3, §4, §5, §6, §7, §8, §9

[5] = test system: HCT-15 (human colic cancer cell line); test: Inhibition of human cancer cell line proliferation (SRB method), HCT-15; conditions: HCT-15 cells, 48 hours
Experimental: as §1, §2, §3, §4, §5, §6, §7, §8, §9

Compound	ED50 A549 [1] [µg/mL]	ED50 SK-OV-3 [2] [µg/mL]	ED50 SK-MEL-2 [3] [µg/mL]	ED50 XF498 [4] [µg/mL]	ED50 HCT-15 [5] [µg/mL]
N.N.[Cl][Pt][Cl] [Cisplastine, reference compound]	1.8	1.5	1.2	1.4	3.2
CC(C)=C1CCC(C)C(C)(COc2ccc3ccc(=O)oc3c2)C1CCC(=O)O (stereo not drawn) [Compound 1, galbanic acid]	8.9 (≈ 22.3 µM)	14.5 (≈ 36.4 µM)	12.3 (≈ 30.9 µM)	13.0 (≈ 32.6 µM)	9.7 (≈ 24.3 µM)
C/C(=C\COc1ccc2ccc(=O)oc2c1)CC/C=C(\C)CCC(O)C(C)(C)O (stereo not drawn) [Compound 2, karatavicinol]	5.6 (≈ 14 µM)	11.6 (≈ 29 µM)	5.7 (≈ 14.2 µM)	7.5 (≈ 18.7 µM)	7.0 (≈ 17.5 µM)
CC(C)=CCC/C(C)=C/CC/C(C)=C/COc1ccc2ccc(=O)oc2c1 [Compound 3, umbelliprenin]	8.9 (≈ 24.3 µM)	9.4 (≈ 25.6 µM)	6.7 (≈ 18.3 µM)	5.3 (≈ 14.5 µM)	4.1 (≈ 11.2 µM)
C=C1CC[C@@H](O)C(C)(C)C1CC/C(C)=C/COc1ccc2ccc(=O)oc2c1 (stereo partly drawn) [Compound 4, farnesiferol B]	7.2 (≈ 18.8 µM)	10.0 (≈ 26.1 µM)	7.1 (≈ 18.6 µM)	7.1 (≈ 18.6 µM)	4.3 (≈ 11.2 µM)
C/C(=C\COc1ccc2ccc(=O)oc2c1)CC[C@@H]1C(C)(C)[C@H]2CC[C@]1(C)O2 [Compound 5, farnesiferol C]	4.2 (≈ 11 µM)	7.2 (≈ 18.8 µM)	3.9 (≈ 10.2 µM)	5.4 (≈ 14.1 µM)	4.3 (≈ 11.2 µM)
